Results on one molecule are retold here after PMC7867136, “Anti-Infective and Anti-Inflammatory Mode of Action of Peptide 19-2.5” (International Journal of Molecular Sciences, 2021).

The subject of the experiment is Salmonella minnesota strain R60 bacteria on human mononuclear cells. As to the kind of experiment: TNFα secretion by human mononuclear cells exposed to whole bacteria. It counts as cell-based. Particulars: 10^6/ml Salmonella minnesota R60; antibiotics alone, or Pep19-2.5 added to ceftriaxone or ciprofloxacin; Figure 5.

Structures are written as SMILES.

Method: Mononuclear cells (MNC) were isolated from heparinized blood samples obtained from healthy donors as described previously [1, 24]. […] For stimulation, 200 μL MNC (1 × 10^6 cells) in RPMI medium supplemented with PS/Glu2% (penicillin/streptomycin/glutamine, Biochrome, Berlin, Germany) plus AB serum (4%) was transferred into the wells of a 96-well culture plate.
The formulations to be tested for stimulation were preincubated for 30 min at 37 °C and added to the cultures at 20 μL per well. The cultures were incubated for 4 h at 37 °C with 5% CO2. Supernatants were collected after centrifugation of the culture plates for 10 min at 400× g and stored at 20 °C until immunological determination of tumor necrosis factor alpha (TNF-α), carried out with a sandwich enzyme-linked immunosorbent assay (ELISA) using a monoclonal antibody against TNF (BD Biosciences, Heidelberg, Germany) as described previously in detail [1]. In the case of the stimulation by the TNFα receptor, interleukin-8 in the supernatants was determined immunologically.

Turning to `CO/N=C(\C(=O)N[C@@H]1C(=O)N2C(C(=O)O)=C(CSc3nc(=O)c(=O)[nH]n3C)CS[C@H]12)c1csc(N)n1` [ceftriaxone], the “Influence on TNFα release from hMNC exposed to whole bacteria” value is “only marginally influence the cytokine release”.
